Laboratory results published in US11028068B2, “Somatostatin modulators and uses thereof” (Crinetics Pharmaceuticals, Inc., priority 2017, dated 2021).

The compounds below were run against T1, human somatostatin receptor subtype 2 (Homo sapiens, UniProt P30874) (assay: cAMP assay (inhibition of cAMP activities via sst2 receptor)). Conditions: CHO cells expressing the human somatostatin receptor subtype 2, forskolin.
T1 construct: expressed in transfected cells; host or cells: CHO (Chinese hamster ovary) cells, cultured under G-418 selection
T1 sequence (P30874 whole entry): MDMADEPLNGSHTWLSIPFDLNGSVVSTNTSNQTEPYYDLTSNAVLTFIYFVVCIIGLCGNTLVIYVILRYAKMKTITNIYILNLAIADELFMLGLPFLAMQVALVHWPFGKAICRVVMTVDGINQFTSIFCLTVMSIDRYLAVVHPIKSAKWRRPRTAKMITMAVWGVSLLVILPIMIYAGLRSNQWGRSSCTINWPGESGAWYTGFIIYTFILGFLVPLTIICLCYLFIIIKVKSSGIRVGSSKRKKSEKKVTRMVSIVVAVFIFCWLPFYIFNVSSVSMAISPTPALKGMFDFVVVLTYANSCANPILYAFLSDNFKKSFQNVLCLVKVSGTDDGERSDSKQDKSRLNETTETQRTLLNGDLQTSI
Assay type: cell-based
Description: General overview: All five SSTR subtypes are Gi coupled G-protein coupled receptors (GPCRs) that lead to decreases in intracellular cyclic AMP (cAMP) when activated by an agonist. Therefore, measurement of intracellular cAMP levels can be used to assess whether compounds of the invention are agonists of SSTR subtypes (John Kelly, Troy Stevens, W. Joseph Thompson, and Roland Seifert, Current Protocols in Pharmacology, 2005,2.2.1-2.2). One example of an intracellular cAMP assay is described below.
One day prior to the assay, 40,000 Chinese hamster ovary (CHO) cells expressing the human somatostatin receptor subtype 2 are plated in each well of a 96-well tissue culture plate in DM-MEM growth media (Gibco) with the following additives: 10% fetal bovine serum (Gibco), 100 U/mL penicillin (Gibco), 100 ug/mL streptomycin (Gibco), 10 mM HEPES (Gibco), 1.2 mM sodium hydroxide, 0.5 mg/mL G-418 (Gibco)). The cells are cultured overnight at 37° C., 5% CO2 and 95% humidity. On the day of the assay, the media is aspirated and the cells are washed with 1X Dulbecco's phosphate buffered saline (Gibco). Next, 5 μL of assay buffer (1× Earle's Balanced Salt Solution (Gibco), 5 mM MgCl2, 10 mM HEPES, 0.1% bovine serum albumin, 0.2 mM 3-Isobutyl-1-methylxanthine (IBMX, Biomol Research Labs)) and forskolin is added. Various dilutions of the compounds of the invention are prepared in assay buffer and 5 μL of the dilutions are added to the cultured cells and incubated for 15 minutes at 37° C. (the final concentration of the compounds of the invention are typically 0-10,000 nM). 10 μL of lysis buffer (HRTF cAMP kit, Cisbio) containing cAMP detection and visualization antibodies are added and the assay is allowed incubate for 1-24 hours at room temperature. The intracellular cAMP concentrations are then measured using a commercially available detection kit (for example, the cAMP HTRF kit, Cisbio). The measured intracellular cAMP concentrations are plotted vs. the concentration of the compounds of the invention and the EC50 of the compounds are calculated using standard methods.

| Structure (SMILES) | EC50 [nM] |
| --- | --- |
| CN(C[C@@H]1CCCN1)C(=O)c1c(C2=CCCC2)cnc2ccc(-c3cc(F)cc(C#N)c3)nc12 [Compound 3-9, 6-(3-cyano-5-fluorophenyl)-3-(cyclopent-1-en-1-yl)-N-methyl-N-[(2S)-pyrrolidin-2-ylmethyl]-1,5-naphthyridine-4-carboxamide] | < 100 |
| Cc1cc(F)cc(-c2cnc3ccc(-c4cnn(C)c4)cc3c2C(=O)N(C)C[C@@H]2CCCN2)c1 [Compound 3-10, 3-(3-fluoro-5-methylphenyl)-N-methyl-6-(1-methyl-1H-pyrazol-4-yl)-N-[(2S)-pyrrolidin-2-ylmethyl]quinoline-4-carboxamide] | 100 to 1000 |
| CN(C[C@@H]1CCCN1)C(=O)c1c(N2CCCCC2)cnc2ccc(-c3cccc(O)c3)nc12 [Compound 3-11, 6-(3-hydroxyphenyl)-N-methyl-3-(piperidin-1-yl)-N-[(2S)-pyrroldin-2-ylmethyl]-1,5-naphthyridine-4-carboxamide] | 100 to 1000 |
| CN(C[C@@H]1CCCN1)C(=O)c1c(N2CCOCC2)cnc2ccc(-c3cccc(O)c3)nc12 [Compound 3-12, 6-(3-hydroxyphenyl)-N-methyl-3-(morpholin-4-yl)-N-[(2S)-pyrrolidin-2-ylmethyl]-1,5-naphthyridine-4-carboxamide] | 100 to 1000 |
| CN(C[C@@H]1CCCN1)C(=O)c1c(N2CCC(CO)C2)cnc2ccc(-c3cccc(O)c3)nc12 (stereo partly drawn) [Compound 3-17, 3-[3-(hydroxymethyl)pyrrolidin-1-yl]-6-(3-hydroxyphenyl)-N-methyl-N-[(2S)-pyrrolidin-2-ylmethyl]-1,5-naphthyridine-4-carboxamide] | 100 to 1000 |
| CC#Cc1cnc2ccc(-c3cccc(O)c3)nc2c1C(=O)N(C)C[C@@H]1CCCN1 [Compound 3-18, 6-(3-hydroxyphenyl)-N-methyl-3-(prop-1-yn-1-yl)-N-((2S) -pyrrolidin-2-ylmethyl)-1,5-naphthyridine-4-carboxamide] | 100 to 1000 |
| CN(C[C@@H]1CCCN1)C(=O)c1c(N2CCO[C@H](c3ccccc3)C2)cnc2ccc(-c3cc(F)cc(C#N)c3)nc12 [Compound 3-42, 6-(3-cyano-5-fluorophenyl)-N-methyl-3-[(2R)-2-phenylmorpholin-4-yl]-N-[(2S) -pyrrolidin-2-ylmethyl]-1,5-naphthyridine-4-carboxamide] | 100 to 1000 |
| CN(C[C@@H]1CCCN1)C(=O)c1c(N2CCO[C@@H](c3ccccc3)C2)cnc2ccc(-c3cc(F)cc(C#N)c3)nc12 [Compound 3-47, 6-(3-cyano-5-fluorophenyl)-N-methyl-3-[(2S)-2-phenylmorpholin-4-yl]-N-[(2S) -pyrrolidin-2-ylmethyl]-1,5-naphthyridine-4-carboxamide] | 100 to 1000 |
| Cc1cc(F)cc(-c2cnc3ccc(-c4cccnc4)cc3c2C(=O)N(C)C[C@@H]2CCCN2)c1 [Compound 3-48, 3-(3-fluoro-5-methylphenyl)-N-methyl-6-(pyridin-3-yl)-N-[(2S)-pyrrolidin-2-ylmethyl]quinoline-4-carboxamide] | < 100 |
| CN(C[C@@H]1CCCN1)C(=O)c1c(N2CC(C)(C)OC(C)(C)C2)cnc2ccc(-c3cc(F)cc(C#N)c3)nc12 [Compound 3-49, 6-(3-cyano-5-fluorophenyl)-N-methyl-N-[(2S)-pyrrolidin-2-ylmethyl]-3-(2,2,6,6-tetramethylmorpholin-4-yl)-1,5-naphthyridine-4-carboxamide] | 100 to 1000 |
| CN(C[C@@H]1CCCN1)C(=O)c1c(N2CCc3cc(C(F)(F)F)ccc32)cnc2ccc(-c3cc(F)cc(C#N)c3)nc12 [Compound 3-54, 6-(3-cyano-5-fluorophenyl)-N-methyl-N-[(2S)-pyrrolidin-2-ylmethyl]-3-[5-(trifluoromethyl)-2,3-dihydro-1H-indol-1-yl]-1,5-naphthyridine-4-carboxamide] | 100 to 1000 |
| CN(C[C@@H]1CCCN1)C(=O)c1c(N2Cc3ccc(C(F)(F)F)cc3C2)cnc2ccc(-c3cc(F)cc(C#N)c3)nc12 [Compound 3-55, 6-(3-cyano-5-fluorophenyl)-N-methyl-N-[(2S)-pyrrolidin-2-ylmethyl]-3-[5-(trifluoromethyl)-2,3-dihydro-1H-isoindol-2-yl]-1,5-naphthyridine-4-carboxamide] | 100 to 1000 |
| CN(C[C@@H]1CCCN1)C(=O)c1c(N2CC3CC3C2)cnc2ccc(-c3cc(F)cc(C#N)c3)nc12 (stereo partly drawn) [Compound 3-69, 3-{3-azabicyclo[3.1.0]hexan-3-yl}-6-(3-cyano-5-fluorophenyl)-N-methyl-N-[(2S) -pyrrolidin-2-ylmethyl]-1,5-naphthyridine-4-carboxamide] | 100 to 1000 |
| CN(C[C@@H]1CCCN1)C(=O)c1c(N2CC3CCC(C2)O3)cnc2ccc(-c3cc(F)cc(C#N)c3)nc12 [Compound 3-70, 6-(3-cyano-5-fluorophenyl)-N-methyl-3-{8-oxa-3-azabicyclo[3.2.1]octan-3-yl}-N-[(2S) -pyrrolidin-2-ylmethyl]-1,5-naphthyridine-4-carboxamide] | 100 to 1000 |
| CN(C[C@@H]1CCCN1)C(=O)c1c(N2CCC(F)(F)C2)cnc2ccc(-c3cc(F)cc(C#N)c3)nc12 [Compound 3-76, 6-(3-cyano-5-fluorophenyl)-3-(3,3-difluoropyrrolidin-1-yl)-N-methyl-N-[(2S)-pyrrolidin-2-ylmethyl]-1,5-naphthyridine-4-carboxamide] | 100 to 1000 |
